Results: paper PMC12250302, “Synthesis, Antimicrobial Activities, and Model of Action of Novel Tetralone Derivatives Containing Aminoguanidinium Moiety” (International Journal of Molecular Sciences, 2025)
Converted amounts (≈) assume the structure as drawn.

How the values were obtained:
MRSA-2 biofilm = assay: Biofilm formation inhibition assay (crystal violet); format: cell-based, Staphylococcus aureus; settings: MRSA-2
Procedure: The effect of 2D on the biofilm formation of MRSA was evaluated. MRSA-2 was cultured in MH broth for a period of 3–5 h, after which it was diluted to a density of 1 × 10^6 CFU/mL with MH broth. […] After the removal of the suspended bacteria, the well plates were washed thrice with PBS. Then, 150 μL of methanol was added and fixed for 30 min. Subsequent to air-drying, 150 μL of a 0.1% crystal violet aqueous solution was added. Following a 15 min staining period, the excess crystal violet was removed by rinsing with flowing water. Finally, 150 μL of anhydrous ethanol was added and the mixture was incubated for 20 min. The optical density at 575 nm was detected.

E. coli ATCC 25922 = assay: MIC and MBC testing, broth microdilution; format: cell-based, Escherichia coli; settings: Escherichia coli
How it was run: (§1)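 Twofold serial dilutions of compound in DMSO were prepared in MH broth and mixed with log-phase bacteria, which had been diluted to 1 × 10^6 CFU/mL before mixing. Plates were incubated 18 h at 37 °C. MIC was the lowest concentration without visible growth, in triplicate.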

[1] = system: K. pneumoniae ATCC 700603; assay: MIC and MBC testing, broth microdilution; format: cell-based, Klebsiella pneumoniae; settings: Klebsiella pneumoniae
How it was run: as §1

[2] = system: clinical S. aureus isolate LMY45; assay: MIC and MBC testing, broth microdilution; format: cell-based, Staphylococcus aureus; settings: Staphylococcus aureus, LMY45
How it was run: (§2)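 Compounds in DMSO were serially two-fold diluted in MH broth and mixed with log-phase bacteria diluted to 1 × 10^6 CFU/mL in MH broth, then incubated 18 h at 37 °C. MBC values were also determined. Each concentration was tested in triplicate.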

[3] = system: clinical S. aureus isolate LMY47; assay: MIC and MBC testing, broth microdilution; format: cell-based, Staphylococcus aureus; settings: Staphylococcus aureus, LMY47
How it was run: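 Broth microdilution in MH broth; two-fold serial dilutions of DMSO-dissolved compound; inoculum 1 × 10^6 CFU/mL from log-phase culture; 37 °C, 18 h; triplicates; MBC also read.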

MRSA-2 = assay: MIC and MBC testing, broth microdilution; format: cell-based, Staphylococcus aureus; settings: Staphylococcus aureus, MRSA-2
How it was run: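 Strains grown to logarithmic phase were diluted to 1 × 10^6 CFU/mL, combined with compound two-fold dilution series in MH broth, and incubated at 37 °C for 18 h. MIC and MBC were then recorded, with triplicate wells per concentration.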

[4] = system: clinical S. aureus isolate LMY48; assay: MIC and MBC testing, broth microdilution; format: cell-based, Staphylococcus aureus; settings: Staphylococcus aureus, LMY48
How it was run: as §2

[5] = system: clinical S. aureus isolate LMY46; assay: MIC and MBC testing, broth microdilution; format: cell-based, Staphylococcus aureus; settings: Staphylococcus aureus, LMY46
How it was run: as §2

MRSA-1 = assay: MIC and MBC testing, broth microdilution; format: cell-based, Staphylococcus aureus; settings: Staphylococcus aureus, MRSA-1
How it was run: as §2

E. faecium ATCC 35667 = assay: MIC and MBC testing, broth microdilution; format: cell-based, Enterococcus faecium; settings: Enterococcus faecium, ATCC35667, E. faecium ATCC 35667
How it was run: as §1

P. aeruginosa ATCC 27853 = assay: MIC and MBC testing, broth microdilution; format: cell-based, Pseudomonas aeruginosa; settings: Pseudomonas aeruginosa
How it was run: as §1

sheep red blood cells = assay: Hemolytic activity; format: cell-based
Procedure: The hemolysis of compound 2D was determined by its ability to lyse sheep red blood cells. The results were expressed as the HC50 value (the concentration at which 50% of red blood cells were lysed).
The sterile defibrillated sheep blood cells were centrifuged (5000 rpm, 5 min) and then washed three times with 0.9% saline. Subsequently, 1 μL of different concentrations of 2D (0.5–128 μg/mL) was mixed with 999 μL of red blood cell suspension. After incubation at 37 °C for 1 h, the mixed solution was centrifuged. The absorbance of the supernatant at 570 nm was measured. Triton X-100 (0.1%) was used as a positive control, and DMSO was used as a negative control. The hemolysis rate was calculated according to the following formula:Hemolysis rate (%) = (ODTreatment − ODNegative)/(ODPositive − ODNegative) × 100%(1)

A. baumannii ATCC 19606 = assay: MIC and MBC testing, broth microdilution; format: cell-based, Acinetobacter baumannii; settings: Acinetobacter baumannii
How it was run: as §1

## [H]/N=C(\N)NN=C1CCCc2cc(OCCCCCCC)ccc21 [Compound 2D, (E)-2-(6-(heptyloxy)-3,4-dihydronaphthalen-1(2H)-ylidene)hydrazine-1-carboximidamide]
MRSA-2 biofilm; 1 μg/mL (1MIC), 24 h
  reduction of biofilm formation: more than 92%
MRSA-2 biofilm; 2–32 μg/mL (2-32MIC)
  inhibition of biofilm formation: almost completely inhibited the formation of biofilm
MRSA-2 biofilm; Staphylococcus aureus, 0.25 μg/mL (1/4MIC), 24 h, read-out: inhibition rate of biofilm formation
  inhibition at 0.25 µg/mL: ~18.5%
MRSA-2 biofilm; Staphylococcus aureus, 0.5 μg/mL (1/2MIC), 24 h, read-out: inhibition rate of biofilm formation
  inhibition at 0.5 µg/mL: ~37.8%
E. coli ATCC 25922; ATCC25922, 18 h, read-out: MIC
  MIC: 4 µg/mL (≈ 12.6 µM)
E. coli ATCC 25922; ATCC25922, read-out: MBC
  MBC: 8 µg/mL (≈ 25.3 µM)
[1]; ATCC700603, 18 h, read-out: MIC
  MIC: 16 µg/mL (≈ 50.6 µM)
[1]; ATCC700603, read-out: MBC
  MBC: 32 µg/mL (≈ 101 µM)
[2]; 18 h, read-out: MIC
  MIC: 2 µg/mL (≈ 6.32 µM)
[2]; read-out: MBC
  MBC: 2 µg/mL (≈ 6.32 µM)
[3]; 18 h, read-out: MIC
  MIC: 1 µg/mL (≈ 3.16 µM)
[3]; read-out: MBC
  MBC: 4 µg/mL (≈ 12.6 µM)
MRSA-2; 18 h, read-out: MIC
  MIC: 1 µg/mL (≈ 3.16 µM)
MRSA-2; read-out: MBC
  MBC: 4 µg/mL (≈ 12.6 µM)
[4]; 18 h, read-out: MIC
  MIC: 2 µg/mL (≈ 6.32 µM)
[4]; read-out: MBC
  MBC: 2 µg/mL (≈ 6.32 µM)
[5]; 18 h, read-out: MIC
  MIC: 4 µg/mL (≈ 12.6 µM)
[5]; read-out: MBC
  MBC: 32 µg/mL (≈ 101 µM)
MRSA-1; 18 h, read-out: MIC
  MIC: 1 µg/mL (≈ 3.16 µM)
MRSA-1; read-out: MBC
  MBC: 16 µg/mL (≈ 50.6 µM)
E. faecium ATCC 35667; 18 h, read-out: MIC
  MIC: 2 µg/mL (≈ 6.32 µM)
E. faecium ATCC 35667; read-out: MBC
  MBC: 4 µg/mL (≈ 12.6 µM)
P. aeruginosa ATCC 27853; ATCC27853, 18 h, read-out: MIC
  MIC: 16 µg/mL (≈ 50.6 µM)
P. aeruginosa ATCC 27853; ATCC27853, read-out: MBC
  MBC: 32 µg/mL (≈ 101 µM)
Sheep red blood cells; SI = HC50/MIC ATCC 29213
  Selectivity index (SI): 101.30
Sheep red blood cells; sheep red blood cells, 37 °C, 1 h
  HC50: 50.65 µg/mL
A. baumannii ATCC 19606; ATCC19606, 18 h, read-out: MIC
  MIC: 4 µg/mL (≈ 12.6 µM)
A. baumannii ATCC 19606; ATCC19606, read-out: MBC
  MBC: 16 µg/mL (≈ 50.6 µM)
